Here are results for 20 molecules from US9556181B2, “Substituted pyrazolopyrimidinylamino-indazoles” (BAYER PHARMA AKTIENGESELLSCHAFT, priority 2013, dated 2017).

The test deals with human full-length MKNK1 (Homo sapiens (Human), UniProt Q9BUB5, T344D). Put plainly: MKNK1 kinase high ATP assay (TR-FRET). Type of test: biochemical. As to conditions: high ATP (2 mM final), 15 min preincubation with enzyme. The protocol: MKNK1 Kinase High ATP Assay
MKNK1-inhibitory activity at high ATP of compounds of the present invention after their preincubation with MKNK1 was quantified employing the TR-FRET-based MKNK1 high ATP assay as described in the following paragraphs.
A recombinant fusion protein of Glutathione-S-Transferase (GST, N-terminally) and human full-length MKNK1 (amino acids 1-424 and T344D of accession number BAA 19885.1), expressed in insect cells using baculovirus expression system and purified via glutathione sepharose affinity chromatography, was purchased from Carna Biosciences (product no 02-145) and used as enzyme. As substrate for the kinase reaction the biotinylated peptide biotin-Ahx-IKKRKLTRRKSLKG (C-terminus in amide form) was used, which can be purchased e.g. from the company Biosyntan (Berlin-Buch, Germany).
For the assay 50 nL of a 100 fold concentrated solution of the test compound in DMSO was pipetted into a black low volume 384 well microtiter plate (Greiner Bio-One, Frickenhausen, Germany), 2 μL of a solution of MKNK1 in aqueous assay buffer [50 mM HEPES pH 7.5, 5 mM MgCl2, 1.0 mM dithiothreitol, 0.005% (v/v) Nonidet-P40 (Sigma)] was added and the mixture was incubated for 15 min at 22° C. to allow pre-binding of the test compounds to the enzyme before the start of the kinase reaction. Then the kinase reaction was started by the addition of 3 μL of a solution of adenosine-tri-phosphate (ATP, 3.3 mM=>final conc. in the 5 μL assay volume is 2 mM) and substrate (0.1 μM=>final conc. in the 5 μL assay volume is 0.06 μM) in assay buffer and the resulting mixture was incubated for a reaction time of 30 min at 22° C. The concentration of MKNK1 was adjusted depending of the activity of the enzyme lot and was chosen appropriate to have the assay in the linear range, typical concentrations were in the range of 0.003 μg/mL. The reaction was stopped by the addition of 5 μL of a solution of TR-FRET detection reagents (5 nM streptavidine-XL665 [Cisbio Bioassays, Codolet, France] and 1 nM anti-ribosomal protein S6 (pSer236)-antibody from Invitrogen [#44921G] and 1 nM LANCE EU-W1024 labeled ProteinG [Perkin-Elmer, product no. AD0071]) in an aqueous EDTA-solution (100 mM EDTA, 0.1% (w/v) bovine serum albumin in 50 mM HEPES pH 7.5).
The resulting mixture was incubated for 1 h at 22° C. to allow the formation of complex between the phosphorylated biotinylated peptide and the detection reagents. Subsequently the amount of phosphorylated substrate was evaluated by measurement of the resonance energy transfer from the Eu-chelate to the streptavidine-XL. Therefore, the fluorescence emissions at 620 nm and 665 nm after excitation at 350 nm were measured in a TR-FRET reader, e.g. a Rubystar (BMG Labtechnologies, Offenburg, Germany) or a Viewlux (Perkin-Elmer). The ratio of the emissions at 665 nm and at […] was taken as the measure for the amount of phosphorylated substrate. The data were normalised (enzyme reaction without inhibitor=0% inhibition, all other assay components but no enzyme=100% inhibition).
(Time-resolved FRET reads energy transfer from a long-lived donor to a nearby acceptor.)

Structures are written as SMILES.

Chain of human full-length MKNK1 (Q9BUB5 other isoform, or with tags, fused parts or gaps T344D): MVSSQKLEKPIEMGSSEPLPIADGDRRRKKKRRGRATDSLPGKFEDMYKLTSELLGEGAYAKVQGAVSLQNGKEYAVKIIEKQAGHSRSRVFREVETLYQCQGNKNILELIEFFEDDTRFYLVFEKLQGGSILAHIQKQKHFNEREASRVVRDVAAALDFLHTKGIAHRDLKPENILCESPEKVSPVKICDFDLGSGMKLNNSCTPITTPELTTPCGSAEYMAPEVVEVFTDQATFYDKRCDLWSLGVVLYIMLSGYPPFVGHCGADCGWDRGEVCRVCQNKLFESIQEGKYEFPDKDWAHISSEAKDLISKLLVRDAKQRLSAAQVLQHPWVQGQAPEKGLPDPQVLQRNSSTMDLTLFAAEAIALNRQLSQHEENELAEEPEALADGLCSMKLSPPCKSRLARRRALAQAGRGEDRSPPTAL

The molecule `Fc1cc2[nH]ncc2cc1Nc1ncnc2[nH]nc(-c3ccccc3)c12` [Example 8, N-(6-fluoro-1H-indazol-5-yl)-3-phenyl-1H-pyrazolo[3,4-d]pyrimidin-4-amine] registered an IC50 of 15 nM. The value for `COc1cc2[nH]ncc2cc1Nc1ncnc2[nH]nc(-c3ccncc3)c12` [Example 16, N-(6-Methoxy-1H-indazol-5-yl)-3-(pyridin-4-yl)-1H-pyrazolo[3,4-d]pyrimidin-4-amine] was 2 nM; that for `Fc1ccc(-c2n[nH]c3ncnc(Nc4cc5cn[nH]c5cc4F)c23)cc1` [Example 14, N-(6-Fluoro-1H-indazol-5-yl)-3-(4-fluorophenyl)-1H-pyrazolo[3,4-d]pyrimidin-4-amine] was 12 nM; that for `c1nc(Nc2ccc3[nH]ncc3c2)c2cn[nH]c2n1` [Example 1, N-(1H-Indazol-5-yl)-1H-pyrazolo[3,4-d]pyrimidin-4-amine] was 117 nM. `Fc1ccc(-c2n[nH]c3ncnc(Nc4ccc5[nH]ncc5c4)c23)cc1` [Example 12, 3-(4-Fluorophenyl)-N-(1H-indazol-5-yl)-1H-pyrazolo[3,4-d]pyrimidin-4-amine] came in with an IC50 of 12 nM. The value for `COc1cc2[nH]ncc2cc1Nc1ncnc2[nH]nc(-c3cccnc3)c12` [Example 10, N-(6-Methoxy-1H-indazol-5-yl)-3-(pyridin-3-yl)-1H-pyrazolo[3,4-d]pyrimidin-4-amine] was 6 nM. The result for `CC(C)Oc1cc2[nH]ncc2cc1Nc1ncnc2[nH]nc(-c3ccc(F)cc3)c12` [Example 19, 3-(4-Fluorophenyl)-N-(6-isopropoxy-1H-indazol-5-yl)-1H-pyrazolo[3,4-d]pyrimidin-4-amine] reads 26 nM; that for `CC(C)Oc1cc2[nH]ncc2cc1Nc1ncnc2[nH]ncc12` [Example 3, N-[6-(Propan-2-yloxy)-1H-indazol-5-yl]-1H-pyrazolo[3,4-d]pyrimidin-4-amine], 531 nM; that for `CC(C)Oc1cc2[nH]ncc2cc1Nc1ncnc2[nH]nc(Br)c12` [Example 17, 3-Bromo-N-(6-isopropoxy-1H-indazol-5-yl)-1H-pyrazolo[3,4-d]pyrimidin-4-amine], 1 nM. The value for `COc1cc2[nH]ncc2cc1Nc1ncnc2[nH]nc(-c3ccccc3)c12` [Example 7, N-(6-methoxy-1H-indazol-5-yl)-3-phenyl-1H-pyrazolo[3,4-d]pyrimidin-4-amine] was 3 nM; that for `Fc1cc2[nH]ncc2cc1Nc1ncnc2[nH]nc(Br)c12` [Example 5, 3-Bromo-N-(6-fluoro-1H-indazol-5-yl)-1H-pyrazolo[3,4-d]pyrimidin-4-amine] was 12 nM. Molecule `c1ccc(-c2n[nH]c3ncnc(Nc4ccc5[nH]ncc5c4)c23)cc1` [Example 15, N-(1H-Indazol-5-yl)-3-phenyl-1H-pyrazolo[3,4-d]pyrimidin-4-amine] yielded an IC50 of 26 nM. Compared with the last molecule, the IC50 is about 2.2-fold higher. With `Fc1cc2[nH]ncc2cc1Nc1ncnc2[nH]nc(-c3cccnc3)c12` [Example 11, N-(6-fluoro-1H-indazol-5-yl)-3-(pyridin-3-yl)-1H-pyrazolo[3,4-d]pyrimidin-4-amine], half-maximal inhibition (IC50) was put at 8 nM. The result for `c1cncc(-c2n[nH]c3ncnc(Nc4ccc5[nH]ncc5c4)c23)c1` [Example 9, N-(1H-Indazol-5-yl)-3-(pyridin-3-yl)-1H-pyrazolo[3,4-d]pyrimidin-4-amine] reads 8 nM.

`COc1cc2[nH]ncc2cc1Nc1ncnc2[nH]nc(Br)c12` [Example 4, 3-Bromo-N-(6-methoxy-1H-indazol-5-yl)-1H-pyrazolo[3,4-d]pyrimidin-4-amine] showed an IC50 of 1 nM. This IC50 is about 8-fold lower than that of the molecule before. The result for `COc1cc2[nH]ncc2cc1Nc1ncnc2[nH]nc(-c3ccc(F)cc3)c12` [Example 13, 3-(4-Fluorophenyl)-N-(6-methoxy-1H-indazol-5-yl)-1H-pyrazolo[3,4-d]pyrimidin-4-amine] reads 2 nM; that for `Brc1n[nH]c2ncnc(Nc3ccc4[nH]ncc4c3)c12` [Example 6, 3-Bromo-N-(1H-indazol-5-yl)-1H-pyrazolo[3,4-d]pyrimidin-4-amine], 14 nM; that for `CC(C)Oc1cc2[nH]ncc2cc1Nc1ncnc2[nH]nc(-c3cccnc3)c12` [Example 20, N-(6-Isopropoxy-1H-indazol-5-yl)-3-(pyridin-3-yl)-1H-pyrazolo[3,4-d]pyrimidin-4-amine], 63 nM. For the molecule `CC(C)Oc1cc2[nH]ncc2cc1Nc1ncnc2[nH]nc(-c3ccccc3)c12` [Example 18, N-(6-Isopropoxy-1H-indazol-5-yl)-3-phenyl-1H-pyrazolo[3,4-d]pyrimidin-4-amine], the IC50 came out at 19 nM. Turning to `CC(C)Oc1cc2[nH]ncc2cc1Nc1ncnc2[nH]nc(-c3ccncc3)c12` [Example 21, N-(6-Isopropoxy-1H-indazol-5-yl)-3-(pyridin-4-yl)-1H-pyrazolo[3,4-d]pyrimidin-4-amine], the IC50 is 27 nM.

The term IC50 denotes the concentration at which inhibition is half-maximal. A lower IC50 goes with greater potency.
